These results are taken from patent US20250188088A1, “COMPOUND AND USE THEREOF” (ONQUALITY PHARMACEUTICALS CHINA LTD., priority 2022, published 2025).

Series [1] is described as follows: Plasma stability, mini pig plasma. The format is in vitro ADME, Mini Pigs. As to conditions: 37° C. The method, then: (§1) In addition, the plasma stability of these compounds was determined. Briefly, the determination method comprises the following steps: • 1) Thaw the frozen mixed plasma in a 37° C. water bath before testing, and then centrifuge at 4000 rpm for 5 min to remove blood clots; • 2) Add 98 μL blank plasma into each well of the 96-well reaction plate; • 3) In addition to the blank samples, add 2 μL of 100 μM working solution of test compound into each well; • 3) Incubate the reaction plate at 37° C. and start timing. Incubation times were 0, 10, 30, 60 and 120 minutes, respectively, with two replicate wells at each time point; • 4) Terminate the incubation at the corresponding time point, and add 400 μL of acetonitrile solution containing 200 ng/mL tolbutamide and 200 ng/mL labetalol to precipitate proteins; • 5) Shake each plate for 20 minutes, then centrifuge at 4000 rpm for 20 minutes, transfer 50 μL of supernatant to another 96-well plate, and dilute each sample with 100 μL of pure water; • 6) Analyze the sample by LC-MS/MS.

The nature of series [2]: Plasma stability, human plasma. The format is in vitro ADME, Humans. As to conditions: 37° C. The procedure:
as §1
The experiment results are as follows, and it can be seen from the test results that the selected compounds are easily metabolized to the target compound in human plasma.

The subject of series [3] is rash caused by monoclonal EGFR inhibitors. In words: Prevention of rash caused by monoclonal EGFR inhibitors, topical ointment, rat model. The format is in vivo, SD rats. The procedure: An Experiment to Verify the Prevention of Rash Caused by Monoclonal EGFR Inhibitors with Topical Administration of Compounds of the Present Application on a Rat Animal Model After the SD rats were fed and adapted for one week (about 200 g), the rats were divided into 10 rats per group. The hair on the back of rats was gently removed with an electric razor one day before the experiment, and then an administration test was carried out. The experiments were divided into the administration group with the compound of the present application and the control group. The EGFR monoclonal antibody solution diluted with normal saline was injected via the tail vein twice a week, and the injection rate and time are shown in Table 2. After injection, the administration group applied the compound ointment of the present application on the backs (about 3 cm*3 cm) of rats every day, and the control group applied blank matrix ointment (about 0.5 g) to the backs (about 3 cm*3 cm) of rats every day. After drug application, the rats were fixed with a fixed cyclinder for 4 h; after that, the rats were released and the residual drug at the application site was wiped off with clear water. Monoclonal antibody EGFR inhibitors were injected via the tail vein twice a week, and the compound of the present application and blank ointment were applied once a day until obvious rashes appeared in the control group. […] Table 2 lists the animal experiment combinations of various monoclonal antibody EGFR inhibitors and the compound ointment of the present application, as well as the corresponding experiment results (wherein, the value in the control rate column=the number of rats whose rash is milder in the administration group than that in the control group/the total number of rats in the administration group×100%).

Series [4] deals with rash caused by small molecule EGFR inhibitors. Description: Treatment of rash caused by small molecule EGFR inhibitors, topical ointment, rat model. The format is in vivo, SD rats. The procedure: An Experiment to Verify the Treatment of Rash Caused by Small Molecule EGFR Inhibitors with Topical Administration of Compounds of the Present Application on a Rat Animal Model After the SD rats were fed and adapted for one week (about 200 g), the rats were divided into 10 rats per group. The hair on the back of rats was gently removed with an electric razor one day before the experiment, and then an intragastric administration test was carried out. EGFR inhibitors were dissolved in a sterile aqueous solution, and diluted with PBS buffer; the amount of each gavage was not more than 2 mL, and the dosage was shown in Table 3. […] The experiments were divided into the administration group with the compound of the present application and the control group. During the treatment experiment, EGFR inhibitors were intragastrically administered continuously every day. After the gavage, the administration group applied the compound ointment of the present application on the back (about 3 cm*3 cm) of rats, and the control group applied blank matrix ointment on the back (about 3 cm*3 cm); after application, the rats were fixed with a fixed cyclinder for about 4 hours, and then the rats were released, with the residual drug at the application site wiped off with clean water, and put back into the cage. The frequency of intragastric administration of EGFR inhibitors is shown in Table 3, but the compounds of the present application and blank ointment are applied only once a day. […] Table 3 lists the animal experiment combinations of various small molecule EGFR inhibitors and the compound ointment of the present application, as well as the corresponding experiment results (wherein, the value in the control rate column=the number of rats whose rash is milder in the administration group than that in the control group/the total number of rats in the administration group×100%).

The test system of series [5] is rash caused by monoclonal EGFR inhibitors. In words: Treatment of rash caused by monoclonal EGFR inhibitors, topical ointment, rat model. The conditions noted are these: SD rats. The format is in vivo. The procedure:
An Experiment to Verify the Treatment of Rash Caused by Monoclonal EGFR Inhibitors with Topical Administration of Compounds of the Present Application on a Rat Animal Model After the SD rats were fed and adapted for one week (about 200 g), the rats were divided into 10 rats per group. The hair on the back of rats was gently removed with an electric razor one day before the experiment, and then an administration test was carried out. The EGFR monoclonal antibody solution diluted with normal saline was injected via tail vein twice a week, and the injection rate and time were shown in Table 4; the treatment experiment was started at the time point when rats developed a rash after continuous administration for 1-2 weeks. The experiments were divided into the administration group with the compound of the present application and the control group. During the treatment experiment, monoclonal antibody EGFR inhibitors were injected twice a week. the administration group applied the compound ointment of the present application on the back (about 3 cm*3 cm) of rats every day, and the control group applied blank matrix ointment on the back (about 3 cm*3 cm); after application, the rats were fixed with a fixed cyclinder for about 4 hours, and then the rats were released, with the residual drug at the application site wiped off with clean water, and put back into the cage. […] Table 4 lists the animal experiment combinations of monoclonal antibody EGFR inhibitors and the compound ointment of the present application, as well as the corresponding experiment results (wherein, the value in the control rate column=the number of rats whose rash is milder in the administration group than that in the control group/the total number of rats in the administration group×100%).

[6] abbreviates: Cetuximab 100 mg/kg twice a week via tail vein, ointment 5.0 wt% once a day, 10 days.
Setting [7] is: Panitumumab 10 mg/kg twice a week via tail vein, ointment 1.0 wt% once a day, 14 days.
[8] abbreviates: EAI045 80 mg/kg once a day, 8 dosing modelling days, ointment 1.0 wt% once a day.
Setting [9] is: Cetuximab 102 mg/kg twice a week via tail vein, ointment 5.0 wt%, 10 days of drug application.
Where [10] appears, read: Cetuximab 100 mg/kg twice a week via tail vein, ointment 0.2 wt% once a day, 10 days.
The mark [11] stands for this setting: Panitumumab 10 mg/kg twice a week via tail vein, ointment 5.0 wt% once a day, 14 days.

As usually defined, the half-life is the time in which the quantity being followed falls by half. For `CCCCC(=O)OCCN(C)C(=O)n1ccc2c(N(C)[C@H]3CN(C(=O)CC#N)CC[C@H]3C)ncnc21` [Compound A22], the half-life at 2 µM in series [1] turned out to be 6.3 min; in series [2], 3.1 min. Moreover, the “% Retained” value in series [1] (0 min) is given as 100.0%; in series [1] (10 min), 25.5%; in series [1] (30 min) it was 1.8%; in series [1] (60 min), 0.1%; in series [1] (120 min) it was 0.1%; in series [2] (0 min), 100.0%. Besides, the “% Retained” value in series [2] (10 min) came to 4.5%; in series [2] (30 min), 0.1%; in series [2] (60 min), 0.1%; in series [2] (120 min) it was 0.0%. The “Control Rate” value in series [3] (Cetuximab 100 mg/kg twice a week via tail vein, ointment 0.3 wt% once a day, 10 days) is 20%; in series [3] (setting [6]), 40%; in series [3] (setting [7]), 30%; in series [3] (Panitumumab 10 mg/kg twice a week via tail vein, ointment 10.0 wt% once a day, 14 days) it was 65%.
As to `C[C@@H]1CN(C(=O)CC#N)[C@@]12CCN(c1ncnc3c1ccn3C(=O)N(C)CCOC(=O)C1CC1)C2` [Compound A27], the “Control Rate” value in series [4] (setting [8]) amounted to 60%; in series [4] (EAI045 80 mg/kg once a day, 8 dosing modelling days, ointment 3.0 wt% once a day), 80%; in series [4] (Osimertinib 60 mg/kg twice a day, 7 dosing modelling days, ointment 0.2 wt% once a day), 40%; in series [4] (Osimertinib 60 mg/kg twice a day, 7 dosing modelling days, ointment 4.0 wt% once a day) it was 100%; in series [5] (Cetuximab 102 mg/kg twice a week via tail vein, ointment 1.0 wt%, 10 days of drug application) it was 30%; in series [5] (setting [9]) it was 80%. In addition, the “Control Rate” value in series [5] (Panitumumab 6 mg/kg twice a week via tail vein, ointment 0.1 wt%, 8 days of drug application) was determined as 60%; in series [5] (Panitumumab 6 mg/kg twice a week via tail vein, ointment 3.0 wt%, 8 days of drug application) it was 90%; in series [3] (setting [10]), 20%; in series [3] (Cetuximab 100 mg/kg twice a week via tail vein, ointment 3.0 wt% once a day, 10 days), 40%; in series [3] (setting [7]), 45%; in series [3] (setting [11]) it was 70%.
As to `C[C@@H]1CN(C(=O)CC#N)[C@@]12CCN(c1ncnc3c1ccn3C(=O)N(C)CCOC(=O)C1CCCCC1)C2` [Compound A28], the “Control Rate” value in series [4] (BPI-7711 60 mg/kg once a day, 6 dosing modelling days, ointment 3.0 wt% once a day) is on record as 80%; in series [4] (Dacomitinib 10 mg/kg once a day, 5 dosing modelling days, ointment 0.2 wt% once a day) it was 30%; in series [4] (Dacomitinib 10 mg/kg once a day, 5 dosing modelling days, ointment 2.0 wt% once a day), 60%; in series [4] (Dacomitinib 10 mg/kg once a day, 5 dosing modelling days, ointment 5.0 wt% once a day), 80%; in series [4] (Dacomitinib 10 mg/kg once a day, 5 dosing modelling days, ointment 10.0 wt% once a day), 60%; in series [4] (setting [8]), 40%. For the same compound, the “Control Rate” value in series [4] (EAI045 80 mg/kg once a day, 8 dosing modelling days, ointment 10.0 wt% once a day) was 100%; in series [4] (Gefitinib 80 mg/kg twice a day, 10 dosing modelling days, ointment 1.0 wt% once a day) it was 30%; in series [4] (Gefitinib 80 mg/kg twice a day, 10 dosing modelling days, ointment 5.0 wt% once a day), 30%; in series [4] (Larotinib 20 mg/kg once a day, 6 dosing modelling days, ointment 3.0 wt% once a day), 40%; in series [4] (Osimertinib 60 mg/kg twice a day, 7 dosing modelling days, ointment 0.5 wt% once a day), 20%; in series [4] (Osimertinib 60 mg/kg twice a day, 7 dosing modelling days, ointment 5.0 wt% once a day) it was 60%. Further, the “Control Rate” value in series [5] (Cetuximab 102 mg/kg twice a week via tail vein, ointment 0.3 wt%, 10 days of drug application) is given as 40%; in series [5] (setting [9]), 70%; in series [5] (Panitumumab 6 mg/kg twice a week via tail vein, ointment 2.0 wt%, 8 days of drug application), 60%; in series [5] (Panitumumab 6 mg/kg twice a week via tail vein, ointment 10.0 wt%, 8 days of drug application) it was 100%; in series [3] (setting [10]) it was 30%; in series [3] (setting [6]), 70%. Besides, the “Control Rate” value in series [3] (Panitumumab 10 mg/kg twice a week via tail vein, ointment 0.2 wt% once a day, 14 days) turned out to be 45%; in series [3] (setting [11]), 100%.
